Results on 2 compounds are retold here after US20260209294A1, “USE OF RECOMBINANT PROTEIN IN PREPARING DRUG FOR INHIBITING ANEURYSM” (HUAZHONG UNIVERSITY OF SCIENCE AND TECHNOLOGY, priority 2022, published 2026).

One assay deals with VSMC cells. As to the kind of experiment: VSMC incubated in vitro with TGF-β1 or pirfenidone (PFD): Western blot, ELISA, RT-PCR. In kind it is cell-based. The note with it: for level of AGGF1: Western blot, treatment 2 days and 4 days. Here is the method:
The VSMCs are starved for 12 hours prior to stimulation with TGF-β1. […] Normalized to β-actin. *, P<0.05; **, P<0.01; ***, P<0.001; n≥4/group for the study.
In FIG. 11, we used VSMC in vitro incubated with TGF-β1 and pirfenidone (PFD). […] In FIG. 12, we used Aggf1 systemic knockout mice for experiments.
For orientation: In western blotting, separated proteins are transferred to a membrane and probed.

Assay [1] relates to TAC-induced carotid artery dilation, remodeling, and inflammation. Briefly: Pirfenidone in TAC model in WT and Aggf1+/- mice. The conditions noted are these: for level of AGGF1 in the RCA / level of p-ERK1/2 in the RCA / level of p-Smad3 in the RCA: Western blot; for expansion of the right carotid artery / ratio of the flow velocity between right/left carotid: 3 weeks after TAC; for right carotid artery inflammation (MCP1 and CD68) / right carotid artery vascular remodeling (H&E staining, Sirius red and αSMA): after TAC. The format is in vivo. From the text: The bar graphs below show the intimal thickness (1st graph), the adventitia thickness (2nd graph), the total carotid artery wall thickness (3rd graph), the medial cell density (4th graph), and the adventitia cell density (5th graph). […] The bar graphs on the right show the percentage of the positive area for the respective immunostaining quantification. […] The GAPDH serves as a loading control. *, P<0.05; **, P<0.01; ***, P<0.001; n=5/group for mouse studies, other sample sizes n=4/group. In FIG. 11, we used VSMC in vitro incubated with TGF-β1 and pirfenidone (PFD). […] In FIG. 12, we used Aggf1 systemic knockout mice for experiments.

Setting [2] is: Aggf1 heterozygous knockout mice (Aggf1+/-).

Consider `Cc1ccc(=O)n(-c2ccccc2)c1` [PFD, pirfenidone], for which the “mRNA levels of Tgfb1 and Tgfb2” value with VSMC cells (RT-PCR, after 2 days) was “no effect”. In the assay on VSMC cells (Western blot 2 and 4 days, ELISA 2 days), the “synthesis of the mature TGF-β1” value is reported as “inhibited”. Also, in the assay with VSMC cells, the “level of AGGF1” value was “increased”. Further, in assay [1] (Aggf1+/- mice after TAC), the “level of AGGF1 in the RCA” value was “did not have this effect”, the “level of p-ERK1/2 in the RCA” value is “did not have this effect” and the “level of p-Smad3 in the RCA” value is recorded as “did not have this effect”. Besides, in assay [1] (setting [2]), the “expansion of the right carotid artery” value is given as “did not possess such effects”; the “ratio of the flow velocity between right/left carotid” value is “did not possess such effects”; the “right carotid artery inflammation (MCP1 and CD68)” value is reported as “did not possess such effects”; the “right carotid artery vascular remodeling (H&E staining, Sirius red and αSMA)” value was “did not possess such effects”. For the same compound, in assay [1] (WT mice after TAC), the “level of AGGF1 in the RCA” value is listed as “significantly increase”, the “level of p-ERK1/2 in the RCA” value was “reduce” and the “level of p-Smad3 in the RCA” value is “reduce”. In assay [1] (WT mice), the “expansion of the right carotid artery” value was “significantly reduce”; the “ratio of the flow velocity between right/left carotid” value is reported as “significantly reduce”; the “right carotid artery inflammation (MCP1 and CD68)” value is “significantly reduce”; the “right carotid artery vascular remodeling (H&E staining, Sirius red and αSMA)” value is given as “significantly reduce”.

For the compound “TGF-β1: TGF-β1 used to stimulate VSMC cells in vitro”, the “level of AGGF1” value in the assay with VSMC cells is “inhibit”.
